Structures can show the parent of a compound that is named as a salt. Where two headings read alike, the source gives them in different places. Values belong to the compound of their own block, whether it stands above or below them.
Key:
PSP24 PLGFR = PSP24 PLGFR (Xenopus laevis, UniProt P79945); test: Xenopus oocyte assay: LPA-induced oscillatory chloride currents (two-electrode voltage clamp); assay type: cell-based; conditions: for threshold to elicit a response alone: compound alone, agonist response; for inhibition of LPA-induced chloride currents: Xenopus oocytes, extracellular application; for reversibility of inhibition of LPA-induced chloride currents: after washing the oocyte
Procedure: Xenopus oocytes which endogenously express PSP24 PLGFR were used to screen the newly designed and synthesized compounds for their LPA inhibitory activity.
(§1) Oocytes were obtained from xylazine-anesthetized adult Xenopus laevis frogs (Carolina Scientific, Burlington, N.C.) under aseptic conditions and prepared for experiment. […] Oocytes were kept in Barth's solution in an incubator between 17-20° C. and were used for 2-7 days after isolation.
(§2) Electrophysiological recordings were carried out using a standard two-electrode voltage-clamp amplifier holding the membrane potential at −60 mV (GeneClamp 500, Axon Instruments, Calif.). […] Membrane currents were recorded with a NIC-310 digital oscilloscope (Nicolet, Madison, Wis.). Applications were made at intervals of 15 mins (minimum) to allow for the appropriate washout and recovery from desensitization.
as §1
as §2, with “CA).” for “Calif.).”

[1] = test system: LNCaP prostate cancer cell line; test: Cytotoxicity / growth inhibition (SRB), LNCaP; assay type: cell-based; conditions: 96 hours drug exposure, read-out: IC50 ± SEM, LNCaP
Procedure: (§3) Cells were removed from stock flasks using trypsin, centrifuged, resuspended in fresh media, and plated at a density of approximately 2,000 cells/well in 96-well culture plates. Final drug concentrations ranged from 0.05 to either 10 or 50 μM. Control experiments with no drug added (negative control) and 5-fluorouracil added (positive control) were performed in parallel. Media was removed and replaced at 48 hours to minimize the effects of drug degradation during the course of the experiment. After 96 hours drug exposure, cells were fixed by the addition of cold 50% trichloroacetic acid (TCA) and incubation at 4° C. for 1 hour. Fixed cells were stained with sulforhodamine B (SRB), and cell number was determined by comparison of absorbance at 540 nm, as compared to a standard curve of cell number versus absorbance. Experiments were performed in duplicate.

[2] = test system: DU-145 prostate cancer cell line; test: Cytotoxicity / growth inhibition (SRB), DU145; assay type: cell-based; conditions: read-out: IC50 ± SEM, DU145
Procedure: as §3

human Edg-2 = biological target: T1, human Edg-2 (Homo sapiens, UniProt Q92633); test: Ca2+ responses (Fura-2) in RH7777 cells expressing Edg-2; assay type: cell-based
T1 construct: expressed in transfected cells
Procedure: (§4) RH7777 cells were transfected with the cDNA constructs encoding human Edg-2, Edg-4, or Edg-7 and then were subcloned into the pCDNA3 expression vector using the Cytofectene transfection reagent according to the manufacturers' protocol. Transfected cells were selected in DMEM containing 10% FBS and 1 mg/ml geneticin. Resistant cells were collected and subcloned by limiting dilution. The resulting clones were then screened using functional assays and RT-PCR analysis. Data are representative of three individual clones.

human Edg-7 = biological target: T2, human Edg-7 (Homo sapiens, UniProt Q9UBY5); test: Ca2+ responses (Fura-2) in RH7777 cells expressing Edg-7; assay type: cell-based; conditions: for effect on LPA-elicited Ca2+ responses: 250 nM LPA 18:1 mixed with 500 nM lipid
T2 construct: Flag; expressed in transfected cells
T2 sequence (Q9UBY5 1-353): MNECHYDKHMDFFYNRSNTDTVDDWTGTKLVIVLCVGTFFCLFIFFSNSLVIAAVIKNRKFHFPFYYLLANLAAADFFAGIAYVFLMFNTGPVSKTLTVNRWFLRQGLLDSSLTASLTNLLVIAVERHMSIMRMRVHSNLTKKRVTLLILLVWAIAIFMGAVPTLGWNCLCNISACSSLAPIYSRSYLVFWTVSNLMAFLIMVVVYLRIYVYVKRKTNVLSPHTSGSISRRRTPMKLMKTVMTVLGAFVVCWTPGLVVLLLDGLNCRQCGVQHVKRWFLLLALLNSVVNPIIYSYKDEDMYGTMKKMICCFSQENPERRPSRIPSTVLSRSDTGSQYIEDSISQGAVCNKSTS
Procedure: as §4

human Edg-4 = biological target: T3, human Edg-4 (Homo sapiens, UniProt Q9HBW0); test: Ca2+ responses (Fura-2) in RH7777 cells expressing Edg-4 (stable or transient); assay type: cell-based
T3 construct: expressed in transfected cells
Source text: RH7777 cells, stably expressing human Edg-4, were kindly provided by Dr. Kevin Lynch (University of Virginia, Charlottesville, Va.). Flag-tagged cDNA's encoding human Edg-4 and -7 inserted into the pCDNA3 expression plasmid (Invitrogen, Carlsbad, Calif.), were a generous gift from Dr. Junken Aoki (University of Tokyo, Tokyo, Japan). RH7777 and NIH3T3 cells were obtained from the American Type Culture Collection (Manassas, Va.). HEY cells were provided by Dr. Lisa Jennings (University of Tennessee, Memphis). All cell lines were maintained in Dulbecco's Modified Eagle's Medium (DMEM) containing 10% FBS and 2 mM glutamine. Oocytes were obtained from adult Xenopus laevis frogs as previously described (Tigyi et al., 1999).
as §4
RH7777 cells were plated on polylysine-coated glass coverslips (Bellco, Vineland, N.J.) one day prior to transfection. The following day, cells were transfected overnight (16-18 hr) with 1 μg of plasmid DNA mixed with 6 μl of Cytofectene. The cells were then rinsed twice with DMEM and cultured in DMEM containing 10% FBS. The next day, the cells were rinsed with DMEM and serum was withdrawn for a minimum of 2 hr prior to monitoring intracellular Ca^2+.

[3] = test system: PC-3 prostate cancer cell line; test: Cytotoxicity / growth inhibition (SRB), PC-3; assay type: cell-based; conditions: 96 hours drug exposure, read-out: IC50 ± SEM, PC-3
Procedure: as §3

HEY ovarian cancer cells = test: Ca2+ responses in HEY ovarian cancer cells; assay type: cell-based; conditions: 100 nM LPA 18:1 mixed with 1 μM lipid
Source text: Likewise, PA 8:0 inhibited the Ca^2+ response to 6% of control, whereas PA 18:1 had no effect. HEY express mRNA transcripts for Edg-1, -2, -5, -7 receptors (FIG. 34C).

[4] = LPA 18:1 near the EC50 combined with compound 108
[5] = Homo sapiens, DU-145, 96 hours drug exposure
[6] = 250 nM LPA 18:1 mixed with 10 μM lipid
[7] = alone, concentrations as high as 10 μM
[8] = mixture of LPA 8:0 and LPA 18:1

T1 sequence (Q92633 whole entry): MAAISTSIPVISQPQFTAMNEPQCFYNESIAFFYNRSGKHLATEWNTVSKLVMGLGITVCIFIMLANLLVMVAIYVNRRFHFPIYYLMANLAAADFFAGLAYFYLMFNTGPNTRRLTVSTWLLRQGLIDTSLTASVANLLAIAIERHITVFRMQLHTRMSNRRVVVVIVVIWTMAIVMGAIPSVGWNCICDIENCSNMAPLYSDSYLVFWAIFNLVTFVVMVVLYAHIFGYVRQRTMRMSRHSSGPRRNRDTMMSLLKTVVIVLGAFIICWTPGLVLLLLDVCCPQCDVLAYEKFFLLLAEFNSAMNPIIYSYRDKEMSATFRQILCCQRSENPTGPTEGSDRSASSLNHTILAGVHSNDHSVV
PSP24 PLGFR, sequence (P79945 whole entry): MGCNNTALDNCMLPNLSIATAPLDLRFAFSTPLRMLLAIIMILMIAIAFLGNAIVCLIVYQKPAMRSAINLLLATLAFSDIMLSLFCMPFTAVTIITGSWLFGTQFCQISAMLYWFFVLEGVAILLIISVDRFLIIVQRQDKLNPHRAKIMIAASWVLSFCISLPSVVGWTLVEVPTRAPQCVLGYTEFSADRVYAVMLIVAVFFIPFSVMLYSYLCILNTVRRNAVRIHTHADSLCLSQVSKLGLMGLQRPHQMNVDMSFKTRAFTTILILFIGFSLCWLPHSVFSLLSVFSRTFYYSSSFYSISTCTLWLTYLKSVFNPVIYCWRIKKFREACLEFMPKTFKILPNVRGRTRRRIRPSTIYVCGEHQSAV
T3 sequence (Q9HBW0 whole entry): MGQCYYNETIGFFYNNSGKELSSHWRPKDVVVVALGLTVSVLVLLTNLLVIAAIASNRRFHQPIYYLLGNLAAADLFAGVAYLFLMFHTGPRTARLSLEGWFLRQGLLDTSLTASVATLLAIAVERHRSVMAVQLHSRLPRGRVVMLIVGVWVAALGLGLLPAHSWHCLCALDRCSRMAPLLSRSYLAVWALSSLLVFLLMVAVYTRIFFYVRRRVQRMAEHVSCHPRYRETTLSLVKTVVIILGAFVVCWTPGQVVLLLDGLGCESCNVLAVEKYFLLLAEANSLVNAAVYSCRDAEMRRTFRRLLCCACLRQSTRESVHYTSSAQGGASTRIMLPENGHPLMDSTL

Ca2+ responses, % of control (human Edg-2; [4]): about 63 % of control
Ca2+ responses, % of control (human Edg-7; [4]): ~56 % of control
Ca2+ responses, % of control (human Edg-4; [4]): about 148 % of control
Compound: CCCCCCCCCCCCOP(=O)(O)O [Compound 108, Phosphoric Acid Monododecyl Ester]

Ca2+ response, % of control (human Edg-2; [6]): 64 % of control
Compound: diacyl glycerol [DAG 8:0]
effect on LPA-elicited Ca2+ responses (human Edg-7): significantly increased the Ca^2+ responses

EC50 (human Edg-2; stable Edg-2 expressing cells, read-out: EC50, Ca2+ transients): 0.378 ± 0.053 µM
EC50 (PSP24 PLGFR; LPA alone, FIG. 37, read-out: EC50 of LPA alone (positive control solution)): 0.025 µM
Compound: lysophosphatidic acid [LPA (18:1)]
IC50 [3]: 28.5 ± 6.3 µM

decrease of the Ca2+ response (human Edg-2; [6]): 18%
effect on LPA-elicited Ca2+ responses (human Edg-7): no longer inhibitors of Edg-7
Ca2+ responses, % of control (human Edg-4; stable Edg-4, 500 nM LPA 18:1 mixed with 5 μM lipid): 137 % of control
Compound: Phosphatidic acid [PA 18:1]
effect on LPA-elicited Ca2+ response (HEY ovarian cancer cells): had no effect

reversibility of inhibition of LPA-induced chloride currents (PSP24 PLGFR): reversible
Compound: CCCCCCCCCCCCCCCCCCCCCC(=O)OCC(COP(=O)(O)O)OP(=O)(O)O (centres unmarked) [Compound 92, 1,2-(3-Docosanoyloxypropane)-bis(dihydrogen phosphate)]
inhibition of LPA-induced chloride currents (PSP24 PLGFR): inhibitors of LPA-induced chloride current

Ca2+ response elicited alone (human Edg-2; [7]): unable to elicit Ca^2+ responses
effect of mixture with LPA 18:1 on Ca2+ responses (human Edg-2; [8]): not effected
effect on LPA-elicited Ca2+ responses (human Edg-7): had no effect
Ca2+ response elicited alone (human Edg-7; [7]): unable to elicit Ca^2+ responses
effect of mixture with LPA 18:1 on Ca2+ responses (human Edg-7; [8]): not effected
Ca2+ response elicited alone (human Edg-4; [7]): unable to elicit Ca^2+ responses
effect of mixture with LPA 18:1 on Ca2+ responses (human Edg-4; mixture of LPA 8:0 and LPA 18:1, stable cells): not effected
Compound: lysophosphatidic acid [LPA 8:0]

inhibitory effect on LPA-elicited Ca2+ response (human Edg-2; [6]): no longer had an inhibitory effect
effect on LPA-elicited Ca2+ responses (human Edg-7): did not have an inhibitory effect
Compound: diacyl glycerol [DAG 18:1]

inhibition of LPA-induced response (PSP24 PLGFR; against 2 nM LPA, compound concentration not given): 59%
Compound: CCCCCCCCCCCCCCCCCC(=O)OCC(COP(=O)(O)O)OP(=O)(O)O (centres unmarked) [Compound 89, 1,2-(3-Octadecanoyloxypropane)-bis(dihydrogen phosphate)]

More lines, now with the values behind:

Compound: CCCCCCCCCCCCCC(=O)OCC(COP(=O)(O)O)OP(=O)(O)O (centres unmarked) [Compound 85, 1,2-(3-Tetradecanoyloxypropane)-bis(dihydrogen phosphate)]
threshold to elicit a response alone (PSP24 PLGFR): ~100 nM
IC50 [1]: 11.6 ± 10.3 µM

Compound: CCCCCCCCCCCCCCOc1ccc(NC(=O)C(N)CO)cc1 (centres unmarked) [Compound 38, N-1-[4-(tetradecyloxy)phenyl]-2-amino-3-hydroxypropanamide trifluoroacetate]
IC50 ([2]; 96 hours drug exposure): 38.9 ± 8.9 µM

Compound: CCCCCCCCCCCCCCNC(=O)C(COP(=O)(OCc1ccccc1)OCc1ccccc1)NC(=O)OC(C)(C)C (centres unmarked) [Compound 51, tert-Butyl N-[1-{([di(benzyloxy)phosphoryl]oxy)methyl}-2-oxo-2-(tetradecylamino)ethyl]carbamate]
melting point: 33 to 35 °C
IC50 ([1]; Homo sapiens, LNCaP): 19.9 ± 6.4 µM
IC50 [2, 5]: 8.1 ± 1.3 µM
IC50 [3]: 25.4 ± 3.6 µM

Compound: CCCCCCCCCCCCCCCCCCCC(=O)OCC(COP(=O)(O)O)OP(=O)(O)O (centres unmarked) [Compound 91, 1,2-(3-Icosanoyloxypropane)-bis(dihydrogen phosphate)]
IC50 ([2]; 96 hours drug exposure): 42.2 ± 1.9 µM

Compound: CCCCCCCCCCCCC/C=C/[C@@H](O)[C@@H](N)COP(=O)(O)O [SPP (13:0), sphingosine-1-phosphate]
IC50 [2, 5]: > 10 µM
IC50 [3]: > 50 µM

Compound: CCCCCCCCCCCCCCNC(=O)C(CO)NC(=O)OC(C)(C)C (centres unmarked) [Compound 27, tert-Butyl N-[1-(hydroxymethyl)-2-oxo-2-(tetradecylamino)ethyl]carbamate]
melting point: 59 to 62 °C
IC50 ([1]; Homo sapiens, LNCaP): 10.9 ± 2.7 µM
IC50 [2, 5]: 19.7 ± 6 µM
IC50 [3]: > 50 µM

Compound: CCCCCCCCCCCCCCCCCCNC(=O)C(N)COP(=O)(O)O (centres unmarked) [Compound 57, 2-Amino-3-(octadecylamino)-3-oxopropyl dihydrogen phosphate]
inhibition of LPA-induced chloride currents (PSP24 PLGFR): inhibitors of LPA-induced chloride current
reversibility of inhibition of LPA-induced chloride currents (PSP24 PLGFR): reversible

Compound: CCCCCCCCCCCCCCCCOCC(COP(=O)(O)O)OP(=O)(O)O (centres unmarked) [Compound 68, 1,2-(3-Hexadecyloxypropane)-bis(dihydrogen phosphate)]
threshold to elicit a response alone (PSP24 PLGFR): ~10 nM
IC50 [1]: 29.3 ± 21.7 µM

Compound: O=c1[nH]cc(F)c(=O)[nH]1 [Fluorouracil, 5-fluorouracil]
IC50 ([1]; Homo sapiens, LNCaP): 2.8 ± 1.6 µM
IC50 [2, 5]: 6.8 ± 3.3 µM
IC50 [3]: 10.2 ± 4.1 µM

Compound: CCCCCCCCCCCCCCNC(=O)C(N)CO.O=C(O)C(F)(F)F (centres unmarked) [Compound 36, N-1-tetradecyl-2-amino-3-hydroxypropanamide trifluoroacetate]
melting point: 168 to 171 °C
inhibition of LPA-induced chloride currents (PSP24 PLGFR): best inhibitor among the non-phosphorylated derivatives

Compound: CCCCCCCCCCCCCCCCCCC(=O)OCC(COP(=O)(O)O)OP(=O)(O)O (centres unmarked) [Compound 90, 1,2-(3-Nonadecanoyloxypropane)-bis(dihydrogen phosphate)]
IC50 ([2]; 96 hours drug exposure): > 50 µM

Compound: CCCCCCCCCCCCOCC(COP(=O)(O)O)OP(=O)(O)O (centres unmarked) [Compound 67, 1,2-(3-Dodecyloxypropane)-bis(dihydrogen phosphate)]
threshold to elicit a response alone (PSP24 PLGFR): ~1000 nM
IC50 [1]: 25.2 ± 12.3 µM

Compound: CCCCCCCCCCCCCCCCCCNC(=O)C(N)CO.O=C(O)C(F)(F)F (centres unmarked)
melting point: 170 to 172 °C

Compound: CCCCCCCCCCCCCCNC(=O)C(N)COP(=O)(O)O (centres unmarked) [Compound 56, 2-Amino-3-oxo-3-(tetradecylamino)propyl dihydrogen phosphate]
inhibition of LPA-induced chloride currents (PSP24 PLGFR): inhibitors of LPA-induced chloride current
reversibility of inhibition of LPA-induced chloride currents (PSP24 PLGFR): reversible

From US6875757B2, “LPA receptor agonists and antagonists and methods of use” (University of Tennessee Research Foundation, priority 2000, dated 2005)
